Target: T1, MUL_3720 (Mycobacterium ulcerans, UniProt A0PU23)
T1 construct: full length aa 1-207 in pET28a, recombinant, purified; 22 kDa; the MUL_ locus tags are those of strain Agy99
Test: SPR (Biacore T200)
Format: binding
Conditions: read-out: MUL_3720; protein amine-immobilised on CM5 chip, free glycan as analyte

Going from CC(=O)N[C@H]1C(O)O[C@H](CO)[C@@H](O[C@@H]2O[C@@H](C)[C@@H](O)[C@@H](O)[C@@H]2O)[C@@H]1O[C@@H]1O[C@H](CO)[C@H](O)[C@H](OS(=O)(=O)O)[C@H]1O[C@@H]1O[C@@H](C)[C@@H](O)[C@@H](O)[C@@H]1O (stereo partly shown) [Fucα1-2(3-O-Su)Galβ1-3(Fucα1–4)GlcNAc] to CC(=O)N[C@H]1C(O)O[C@H](COS(=O)(=O)O)[C@H](O)[C@@H]1O[C@@H]1OC(C(=O)O)=C[C@H](O)[C@H]1O (stereo partly drawn) [chondroitin 6S-disaccharide ΔUAα 1-3GalNAc-6S], the Kd falls from 17400 ± 1900 nM to 99.2 ± 35 nM (180-fold).

Target: T1, MUL_3720
Test: glycan array (fluorescence)
Format: binding
Conditions: glycan printed on slide via spacer; 1 mM CaCl2 and 1 mM MgCl2 PBS printed for the cell arrays
Excerpt: glycan array (fluorescence) on MUL_3720

“3,6-O-Su2-Galβ1-4(6-O-Su)GlcNAcβ-sp2 [compound 189]” and “3,6-O-Su2-Galβ1-4GlcNAcβ-sp2 [compound 182]” are within error of each other in “fold change in fluorescence binding signal” value (shortened to “fold change”): 2.46±0.56 fold for the first, 3.29±1.77 fold for the second.

“4,6-O-Su2-GalNAcβ1-4-(3-O-Ac)GlcNAcβ-sp3 [compound 199]” and “6-O-Su-Galβ1-3(6-O-Su)GlcNAcβ-sp2 [compound 179]” are within error of each other in “fold change” value: 2.45±0.87 fold for the first, 1.48±0.33 fold for the second.

“6-O-Su-Galβ1-3GalNAcα-sp3 [compound 151]” and “6-O-Su-Galβ1-3GlcNAcβ-sp3 [compound 161]” are within error of each other in “fold change” value: 2.44±0.88 fold for the first, 2.49±0.26 fold for the second.

In the case of CC(=O)N[C@H]1[C@H](OCCCN)O[C@H](CO)[C@@H](O[C@@H]2O[C@H](CO)[C@H](OS(=O)(=O)O)[C@H](OS(=O)(=O)O)[C@H]2O)[C@@H]1O [compound 201, 3,4-O-Su2-Galβ1-4GlcNAcβ-sp3], the “fold change” value is reported as 1.52±0.64 fold.

Target: MUL_3720 (Mycobacterium ulcerans) (UniProt A0PU23)
Test: SPR; Biacore T200; MUL_3720 immobilised on a CM5 chip at pH 4.5 (5 uL/min, 600 s), ethanolamine blank flow cell as control; keratin extract flowed between 2 nM and 20 uM; double reference subtracted
Conditions: not given

For “keratin isolated from human epidermis (mixed keratins with average molecular weight of 64.1 kDa)”, the Kd was 4.78 nM.
